In ChEMBL document CHEMBL1201862, “PubChem BioAssay data set” (2004):
Activity calls are given as the source filed them.

Key:
BJ [1] = assay: BJ-TERT-LT-ST fibroblast viability loss – cell-based, RAS-independent, luminescence, dose response (AID 1935); assay type: functional; details: Homo sapiens;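 note: BJ fibroblasts immortalized with TERT plus LT and ST oncogenes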
[2] = target: T1, Tyrosine-protein phosphatase non-receptor type 22 (Homo sapiens, UniProt Q9Y2R2); assay type: functional
[3] = DRD fibroblast viability loss – cell-based, non-viral oncogenic, luminescence, dose response (AID 1934); assay type: functional; details: Homo sapiens
[4] = target: T2, Tyrosine-protein phosphatase non-receptor type 7 (Homo sapiens, UniProt P35236); assay: HePTP tyrosine phosphatase activity blockers – biochemical, absorbance, leukemia target, primary screen (AID 521); assay type: functional
T2 sequence (P35236 whole entry): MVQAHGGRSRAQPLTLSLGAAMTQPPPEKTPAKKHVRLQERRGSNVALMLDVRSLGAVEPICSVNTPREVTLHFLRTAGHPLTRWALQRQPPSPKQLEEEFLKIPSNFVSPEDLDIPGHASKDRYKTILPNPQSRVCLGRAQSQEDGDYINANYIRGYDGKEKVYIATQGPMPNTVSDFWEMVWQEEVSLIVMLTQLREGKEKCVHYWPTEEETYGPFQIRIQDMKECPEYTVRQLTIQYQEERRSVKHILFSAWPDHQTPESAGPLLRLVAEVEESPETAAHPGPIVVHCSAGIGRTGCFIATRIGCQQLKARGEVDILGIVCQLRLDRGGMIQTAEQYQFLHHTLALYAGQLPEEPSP

[5] = target: Heat shock protein HSP 90-alpha (Homo sapiens, UniProt P07900); assay type: functional, organism-based
[6] = target: T3, Dual specificity protein phosphatase 3 (Homo sapiens, UniProt P51452); assay: VHR1 phosphatase inhibitors, biochemical (AID 1878)
[7] = target: T3, Dual specificity protein phosphatase 3; assay: VHR1 phosphatase inhibitors, primary screen, biochemical, absorbance, uHTS (AID 1654)
[8] = target: T4, Dual specificity protein phosphatase 6 (Rattus norvegicus, UniProt Q64346); assay: inhibition of rat DUSP6 enzyme activity – biochemical, in vitro, primary screen (AID 425)
T4 sequence (Q64346 whole entry): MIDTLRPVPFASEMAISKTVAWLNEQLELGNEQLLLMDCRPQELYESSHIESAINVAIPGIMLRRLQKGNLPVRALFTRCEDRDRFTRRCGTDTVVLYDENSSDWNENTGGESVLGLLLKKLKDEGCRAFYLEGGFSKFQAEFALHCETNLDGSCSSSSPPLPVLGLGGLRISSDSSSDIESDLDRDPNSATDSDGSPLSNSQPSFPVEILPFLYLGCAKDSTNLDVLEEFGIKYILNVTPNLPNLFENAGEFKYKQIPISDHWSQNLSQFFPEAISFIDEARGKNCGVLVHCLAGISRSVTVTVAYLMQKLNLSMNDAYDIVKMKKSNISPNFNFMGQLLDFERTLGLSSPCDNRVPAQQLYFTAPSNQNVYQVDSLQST

BJ [9] = assay: growth inhibition of engineered Ras-driven BJ cells – cell-based, alamar blue fluorescence, cherrypicked samples, dose response (AID 2631); assay type: functional; details: Homo sapiens;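 note: confirmatory dose-response assay in RAS-dependent BJ fibroblasts engineered with TERT, LT and ST, with cytotoxicity read by fluorescence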
[10] = target: T1, Tyrosine-protein phosphatase non-receptor type 22; assay type: functional; remark: listed apart in the source
BJ [11] = assay: cells; assay type: functional, cell-based; details: Homo sapiens
BJ [12] = assay: BJ-TERT fibroblast viability loss – cell-based, RAS-independent, luminescence, dose response (AID 1933); assay type: functional; details: Homo sapiens
[13] = target: T2, Tyrosine-protein phosphatase non-receptor type 7; assay type: functional
[14] = target: G-protein coupled receptor 55 (Homo sapiens, UniProt Q9Y2T6); assay: SAR analysis of selective Agonists of GPR55 using an Image-Based Assay. [Related pubchem assays (depositor defined):AID1961, AID1965]; assay type: functional
Cannabinoid receptor 2 [15] = target: T5, Cannabinoid receptor 2 (Homo sapiens, UniProt P34972); assay: SAR analysis of antagonists of the Cannabinoid Receptor 2 using an Image-Based Assay - Set 2. [Related pubchem assays (depositor defined):AID1961, AID1965]; assay type: functional
Cannabinoid receptor 1 = Cannabinoid receptor 1 (Homo sapiens, UniProt P21554); assay: SAR analysis of antagonists of the Cannabinoid Receptor 1 using an Image-Based Assay. [Related pubchem assays (depositor defined):AID1961, AID1965]; assay type: functional
Cannabinoid receptor 2 [16] = target: T5, Cannabinoid receptor 2; assay: SAR analysis of agonists of the Cannabinoid Receptor 2 using an Image-Based Assay - Set 2. [Related pubchem assays (depositor defined):AID1961, AID1965]; assay type: functional
Hexokinase-1 = Hexokinase-1 (Homo sapiens, UniProt P19367); assay: HK1 enzyme activation by HKDC1 hits – biochemical, selectivity assay for HKDC1 activator project, dose response (AID 504762); assay type: functional
Hexokinase HKDC1 = Hexokinase HKDC1 (Homo sapiens, UniProt Q2TB90); assay: activation of HKDC1 glucose phosphorylation – biochemical, W721R variant, dose response (AID 504730); assay type: functional
[17] = target: T6, E3 ubiquitin-protein ligase XIAP (Homo sapiens, UniProt P98170); assay: Chemical Antagonists of IAP-family anti-apoptotic proteins confirmation. [Related pubchem assays (depositor defined):AID1018, AID1513, AID1514, AID1638, AID1749, AID1750, AID488957, AID488963]
[18] = target: T6, E3 ubiquitin-protein ligase XIAP; assay: Counter Screen using XIAP-Bir3 of the Chemical Antagonists of IAP-family anti-apoptotic proteins confirmation assay. [Related pubchem assays (depositor defined):AID1018, AID1449, AID1513, AID1638, AID1749, AID1750, AID488957, AID488963]

T1 sequence (Q9Y2R2 whole entry): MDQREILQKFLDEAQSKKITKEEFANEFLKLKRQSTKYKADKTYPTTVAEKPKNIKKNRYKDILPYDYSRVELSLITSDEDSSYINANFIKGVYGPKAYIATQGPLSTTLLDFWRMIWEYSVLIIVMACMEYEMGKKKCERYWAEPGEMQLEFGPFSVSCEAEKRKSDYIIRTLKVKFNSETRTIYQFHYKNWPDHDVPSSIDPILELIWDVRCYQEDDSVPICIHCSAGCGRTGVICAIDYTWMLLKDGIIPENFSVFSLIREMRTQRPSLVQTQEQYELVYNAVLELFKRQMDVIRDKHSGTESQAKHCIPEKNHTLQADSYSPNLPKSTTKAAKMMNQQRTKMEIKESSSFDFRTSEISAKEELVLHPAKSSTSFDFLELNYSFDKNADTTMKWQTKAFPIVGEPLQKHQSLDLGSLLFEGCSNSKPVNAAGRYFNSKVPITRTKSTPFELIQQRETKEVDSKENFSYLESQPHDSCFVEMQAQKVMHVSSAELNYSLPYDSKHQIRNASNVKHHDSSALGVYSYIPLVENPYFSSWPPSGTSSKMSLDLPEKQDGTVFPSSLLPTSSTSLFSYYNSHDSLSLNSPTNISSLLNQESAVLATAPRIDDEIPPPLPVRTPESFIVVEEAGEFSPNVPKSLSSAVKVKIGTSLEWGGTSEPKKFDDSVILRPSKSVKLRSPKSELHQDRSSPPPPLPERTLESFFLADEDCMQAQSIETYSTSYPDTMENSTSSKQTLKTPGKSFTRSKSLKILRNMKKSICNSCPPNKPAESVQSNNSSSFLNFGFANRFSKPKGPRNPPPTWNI
T5 sequence (P34972 whole entry): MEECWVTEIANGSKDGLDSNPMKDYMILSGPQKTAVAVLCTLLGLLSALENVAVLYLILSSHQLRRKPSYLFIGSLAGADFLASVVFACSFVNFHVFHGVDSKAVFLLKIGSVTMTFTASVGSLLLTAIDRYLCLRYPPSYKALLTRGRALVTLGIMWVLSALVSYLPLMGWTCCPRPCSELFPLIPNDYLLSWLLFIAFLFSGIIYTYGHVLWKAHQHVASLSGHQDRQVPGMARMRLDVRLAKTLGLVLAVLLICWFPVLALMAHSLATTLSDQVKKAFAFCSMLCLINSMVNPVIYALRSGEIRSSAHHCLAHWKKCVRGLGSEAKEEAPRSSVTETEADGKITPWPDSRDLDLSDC
T3 sequence (P51452 whole entry): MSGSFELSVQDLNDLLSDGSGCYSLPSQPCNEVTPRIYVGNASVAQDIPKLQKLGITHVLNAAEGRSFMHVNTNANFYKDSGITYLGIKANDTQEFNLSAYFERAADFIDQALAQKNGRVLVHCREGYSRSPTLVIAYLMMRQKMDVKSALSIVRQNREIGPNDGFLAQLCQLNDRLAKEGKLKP
T6 sequence (P98170 whole entry): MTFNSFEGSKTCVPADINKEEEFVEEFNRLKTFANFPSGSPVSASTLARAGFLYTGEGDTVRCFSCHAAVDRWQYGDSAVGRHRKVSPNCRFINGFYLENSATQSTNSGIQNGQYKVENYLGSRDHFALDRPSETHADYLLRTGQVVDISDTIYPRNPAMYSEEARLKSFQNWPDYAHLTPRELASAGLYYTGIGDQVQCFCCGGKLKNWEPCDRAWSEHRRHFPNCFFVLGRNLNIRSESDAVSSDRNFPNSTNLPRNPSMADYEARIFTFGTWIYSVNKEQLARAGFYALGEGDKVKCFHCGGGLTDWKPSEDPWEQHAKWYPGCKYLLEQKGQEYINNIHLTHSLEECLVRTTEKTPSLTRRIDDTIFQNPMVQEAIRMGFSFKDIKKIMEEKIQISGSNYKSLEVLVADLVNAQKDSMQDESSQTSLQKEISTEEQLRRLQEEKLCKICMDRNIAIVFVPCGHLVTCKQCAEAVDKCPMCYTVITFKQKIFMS
Sequence of Cannabinoid receptor 1 (P21554 whole entry): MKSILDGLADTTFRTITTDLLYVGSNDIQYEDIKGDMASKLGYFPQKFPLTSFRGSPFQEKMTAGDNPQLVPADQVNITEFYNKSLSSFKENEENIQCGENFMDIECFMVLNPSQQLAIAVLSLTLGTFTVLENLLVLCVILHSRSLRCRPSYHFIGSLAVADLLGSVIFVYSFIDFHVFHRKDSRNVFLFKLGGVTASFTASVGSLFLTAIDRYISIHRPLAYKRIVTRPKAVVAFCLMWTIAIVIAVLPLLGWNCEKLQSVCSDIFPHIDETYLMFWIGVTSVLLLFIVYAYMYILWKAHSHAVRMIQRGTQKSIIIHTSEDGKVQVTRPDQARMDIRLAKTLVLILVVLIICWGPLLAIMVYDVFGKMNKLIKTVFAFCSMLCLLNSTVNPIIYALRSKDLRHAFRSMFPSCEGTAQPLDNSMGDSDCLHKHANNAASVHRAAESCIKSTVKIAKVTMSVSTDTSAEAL
Sequence of G-protein coupled receptor 55 (Q9Y2T6 whole entry): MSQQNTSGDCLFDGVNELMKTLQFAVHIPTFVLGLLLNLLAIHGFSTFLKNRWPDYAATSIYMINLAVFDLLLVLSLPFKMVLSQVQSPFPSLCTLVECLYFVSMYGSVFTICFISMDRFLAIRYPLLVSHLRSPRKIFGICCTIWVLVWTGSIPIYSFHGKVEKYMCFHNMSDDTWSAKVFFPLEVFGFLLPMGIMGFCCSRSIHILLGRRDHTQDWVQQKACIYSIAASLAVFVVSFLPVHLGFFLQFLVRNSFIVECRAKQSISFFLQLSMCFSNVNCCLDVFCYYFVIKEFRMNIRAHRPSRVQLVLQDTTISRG
Sequence of Hexokinase HKDC1 (Q2TB90 whole entry): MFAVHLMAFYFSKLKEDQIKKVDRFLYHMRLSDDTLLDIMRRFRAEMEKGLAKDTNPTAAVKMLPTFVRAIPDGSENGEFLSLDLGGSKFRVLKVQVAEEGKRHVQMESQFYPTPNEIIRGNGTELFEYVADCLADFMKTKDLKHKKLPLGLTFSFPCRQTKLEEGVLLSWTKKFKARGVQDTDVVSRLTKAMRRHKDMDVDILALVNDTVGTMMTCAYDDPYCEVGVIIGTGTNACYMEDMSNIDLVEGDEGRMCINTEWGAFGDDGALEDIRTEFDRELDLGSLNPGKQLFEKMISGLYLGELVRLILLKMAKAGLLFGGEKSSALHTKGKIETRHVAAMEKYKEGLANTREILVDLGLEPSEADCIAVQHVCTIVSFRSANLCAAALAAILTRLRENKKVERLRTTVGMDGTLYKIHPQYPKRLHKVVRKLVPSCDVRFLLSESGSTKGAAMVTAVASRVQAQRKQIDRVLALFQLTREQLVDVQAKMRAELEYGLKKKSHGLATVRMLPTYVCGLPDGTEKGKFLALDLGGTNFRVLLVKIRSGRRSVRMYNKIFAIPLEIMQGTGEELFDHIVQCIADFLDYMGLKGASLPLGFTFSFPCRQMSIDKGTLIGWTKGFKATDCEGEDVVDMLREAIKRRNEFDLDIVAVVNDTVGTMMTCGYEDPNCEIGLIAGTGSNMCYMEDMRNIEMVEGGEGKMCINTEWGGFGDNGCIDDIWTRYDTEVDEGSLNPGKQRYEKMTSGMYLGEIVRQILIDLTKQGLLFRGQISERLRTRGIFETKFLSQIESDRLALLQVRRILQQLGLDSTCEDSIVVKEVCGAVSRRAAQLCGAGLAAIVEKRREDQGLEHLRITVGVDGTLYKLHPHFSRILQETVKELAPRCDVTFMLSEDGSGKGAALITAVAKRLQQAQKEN
Sequence of Hexokinase-1 (P19367 whole entry): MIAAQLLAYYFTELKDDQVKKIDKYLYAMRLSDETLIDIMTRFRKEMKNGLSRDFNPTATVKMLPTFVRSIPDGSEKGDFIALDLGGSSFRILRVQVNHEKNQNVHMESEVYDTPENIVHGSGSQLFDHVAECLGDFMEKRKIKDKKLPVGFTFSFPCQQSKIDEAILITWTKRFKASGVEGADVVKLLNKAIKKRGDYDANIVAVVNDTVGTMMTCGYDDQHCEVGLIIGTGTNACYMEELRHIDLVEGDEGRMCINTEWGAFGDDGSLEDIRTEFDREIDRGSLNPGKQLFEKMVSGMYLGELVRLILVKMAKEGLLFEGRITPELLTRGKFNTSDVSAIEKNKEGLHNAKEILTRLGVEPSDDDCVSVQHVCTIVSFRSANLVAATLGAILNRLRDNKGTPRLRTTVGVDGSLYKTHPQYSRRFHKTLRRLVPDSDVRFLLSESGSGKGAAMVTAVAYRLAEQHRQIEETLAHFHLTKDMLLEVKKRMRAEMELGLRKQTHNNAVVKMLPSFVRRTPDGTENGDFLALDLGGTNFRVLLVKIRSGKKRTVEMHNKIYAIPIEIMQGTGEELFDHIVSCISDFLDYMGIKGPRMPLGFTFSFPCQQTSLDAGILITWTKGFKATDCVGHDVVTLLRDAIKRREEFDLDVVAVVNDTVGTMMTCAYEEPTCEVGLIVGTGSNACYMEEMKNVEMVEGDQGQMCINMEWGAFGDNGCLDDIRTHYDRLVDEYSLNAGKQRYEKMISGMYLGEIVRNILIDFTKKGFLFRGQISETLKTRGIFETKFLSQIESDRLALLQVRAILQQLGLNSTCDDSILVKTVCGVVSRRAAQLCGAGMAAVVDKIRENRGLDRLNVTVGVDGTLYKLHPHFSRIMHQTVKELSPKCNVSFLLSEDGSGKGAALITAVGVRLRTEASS

Structure (SMILES): O=C(c1cccs1)c1no[n+]([O-])c1C(=O)c1cccs1
- EC50 (BJ [1]): 7.28 µM (inconclusive)
- IC50 [2]: 2.39 µM (active)
- EC50 [3]: 2.78 µM (inconclusive)
- IC50 [4]: > 100 µM (not active)
- AC50 [5]: 3.5 µM (active)
- IC50 [6]: 7.48 µM (active)
- IC50 [7]: < 0.98 µM (inactive)
- IC50 [8]: 141 µM (not active)
- EC50 (BJ [9]): 3.9 µM (inconclusive)
- IC50 [10]: < 1.24 µM (active)
- EC50 (BJ [11]): 3.58 µM (active)
- EC50 (BJ [12]): 0.803 µM (active)
- IC50 [13]: 4.5 µM (active)

Structure (SMILES): CCCN(CCC)Cc1c(C(=O)NN=Cc2c[nH]c3ccccc23)nnn1-c1nonc1N
- EC50 [14]: 0.633 µM (active)
- IC50 (Cannabinoid receptor 2 [15]): > 32 µM (inactive)
- IC50 (Cannabinoid receptor 1): > 32 µM (inactive)
- EC50 (Cannabinoid receptor 2 [16]): > 32 µM (inactive)

Structure (SMILES): CSc1nc(N)nc2c1ncn2CC(=O)N[C@H](C)c1cccc2ccccc12
- EC50 (Hexokinase-1): 11.8 µM (active)
- EC50 (Hexokinase HKDC1): 9.1 µM (active)

Structure (SMILES): CC(C(=O)O)N1Cc2ccccc2C1=O (stereo unspecified)
- IC50 [17]: > 200 µM (inactive)
- IC50 [18]: > 200 µM (inactive)
